In ChEMBL document CHEMBL5036329, “4-Methyl-1,2,3-Triazoles as N-Acetyl-Lysine Mimics Afford Potent BET Bromodomain Inhibitors with Improved Selectivity” (J Med Chem, 2021):

Assays:
[1] = Microsomal stability in human liver microsomes assessed as fraction unbound measured upto 60 mins in presence of NADPH regenerating system by LC-MS analysis; assay type: ADME, Microsome; settings: 1 h
[2] = biological target: T1, Bromodomain-containing protein 3 (Homo sapiens, UniProt Q15059); assay: Binding affinity to human partial length BRD3 BD2 expressed in bacterial expression system assessed as dissociation constant by BROMOscan assay
T1 sequence (Q15059 whole entry): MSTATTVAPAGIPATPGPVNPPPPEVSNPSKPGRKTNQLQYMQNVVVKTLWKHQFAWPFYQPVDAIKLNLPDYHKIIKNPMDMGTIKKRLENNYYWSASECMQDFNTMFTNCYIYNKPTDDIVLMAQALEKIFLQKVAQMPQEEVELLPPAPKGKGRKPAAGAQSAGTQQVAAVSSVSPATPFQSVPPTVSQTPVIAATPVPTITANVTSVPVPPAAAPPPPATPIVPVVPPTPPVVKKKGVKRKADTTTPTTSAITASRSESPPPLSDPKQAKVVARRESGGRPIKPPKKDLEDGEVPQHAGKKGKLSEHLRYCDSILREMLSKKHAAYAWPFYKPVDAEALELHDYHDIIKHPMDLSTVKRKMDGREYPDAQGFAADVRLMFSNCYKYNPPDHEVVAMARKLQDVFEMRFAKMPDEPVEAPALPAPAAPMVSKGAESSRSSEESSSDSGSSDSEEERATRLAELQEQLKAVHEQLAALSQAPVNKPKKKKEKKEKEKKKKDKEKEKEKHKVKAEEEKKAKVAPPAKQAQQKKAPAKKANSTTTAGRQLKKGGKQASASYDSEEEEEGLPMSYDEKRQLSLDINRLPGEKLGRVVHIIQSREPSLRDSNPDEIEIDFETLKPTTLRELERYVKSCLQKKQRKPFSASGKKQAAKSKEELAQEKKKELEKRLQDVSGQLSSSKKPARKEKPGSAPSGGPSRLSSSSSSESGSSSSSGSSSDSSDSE

[3] = biological target: T2, Bromodomain testis-specific protein (Homo sapiens, UniProt Q58F21); assay: Binding affinity to human partial length BRDT BD1 expressed in bacterial expression system assessed as dissociation constant by BROMOscan assay
[4] = biological target: T2, Bromodomain testis-specific protein; assay: Binding affinity to human partial length BRDT BD2 expressed in bacterial expression system assessed as dissociation constant by BROMOscan assay
[5] = biological target: T1, Bromodomain-containing protein 3; assay: Binding affinity to human partial length BRD3 BD1 expressed in bacterial expression system assessed as dissociation constant by BROMOscan assay

| Compound | Fu [1] | also measured |
| --- | --- | --- |
| Cc1nnn(C2CCNCC2)c1-c1cccc(Oc2cc(Br)cc(Br)c2)n1 | 0.09 |  |
| Cc1cc(C)cc(Oc2cccc(-c3c(C)nnn3C3CCN(CCN(C)C)CC3)n2)c1 | 0.14 | Kd [2]: 310 nM; Kd [3]: 15 nM; Kd [4]: 250 nM; Kd [5]: 20 nM |
| Cc1nnn(C2CCNCC2)c1-c1cccc(Oc2cc(C3CC3)cc(C3CC3)c2)n1 | 0.12 |  |
| Cc1cc(C)cc(Nc2nccc(-c3c(-c4ccc(C(F)(F)F)cc4)ncn3C3CCN(CCN)CC3)n2)c1 | 0.08 |  |
| Cc1nnn(C2CCN(CCN(C)C)CC2)c1-c1cccc(Oc2cc(Br)ccc2Br)n1 | 0.13 |  |
| Cc1nnn(C2CCNCC2)c1-c1cccc(Oc2cc(Cl)cc(Cl)c2)n1 | 0.11 |  |
| Cc1cc(C)cc(Oc2cccc(-c3c(C)nnn3C3CCNCC3)n2)c1 | 0.13 |  |
